The supplement of paper PMC10627819

Columns and labels:
Experiment in all cases: fitness (endpoint OD595 vs no drug) (fraction); higher = more growth
[1] = test system: S. pneumoniae D39V
How it was run: (§1)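 Fitness was defined as the optical density at the transition into stationary phase relative to the robust mean of no-drug control wells. Values were capped at 1. Cultures were started at OD595 0.01 in 384-well plates (30 µl, or 55 µl for S. pneumoniae) in TSB, LB Lennox or CY at 37 °C. OD595 was recorded every 30 min over 14 h, with the first reading subtracted as background.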

[2] = test system: S. aureus DSM 20231
How it was run: as §1

[3] = test system: S. aureus Newman
How it was run: as §1

CCC[C@@H]1C[C@@H](C(=O)N[C@@H]([C@H]2O[C@H](SC)[C@H](O)[C@@H](O)[C@H]2O)[C@@H](C)O)N(C)C1 [Lincomycin] + CO[C@@]12[C@H](COC(N)=O)C3=C(C(=O)C(C)=C(N)C3=O)N1C[C@@H]1N[C@@H]12 [Mitomycin C]
Details | fitness
[1], first compound 0.2 µg/mL, partner 0.001075 µg/mL | 0.679
[1], first compound 0.2 µg/mL, partner 0.00215 µg/mL | 0.69
[1], first compound 0.2 µg/mL, partner 0.0043 µg/mL | 0.603
[1], first compound 0.215 µg/mL, partner 0.002 µg/mL | 0.709
[1], first compound 0.215 µg/mL, partner 0.004 µg/mL | 0.73
[1], first compound 0.215 µg/mL, partner 0.008 µg/mL | 0.657
[1], first compound 0.4 µg/mL, partner 0.001075 µg/mL | 0.605
[1], first compound 0.4 µg/mL, partner 0.00215 µg/mL | 0.609
[1], first compound 0.4 µg/mL, partner 0.0043 µg/mL | 0.497
[1], first compound 0.43 µg/mL, partner 0.002 µg/mL | 0.615
[1], first compound 0.43 µg/mL, partner 0.004 µg/mL | 0.614
[1], first compound 0.43 µg/mL, partner 0.008 µg/mL | 0.514
[1], first compound 0.8 µg/mL, partner 0.001075 µg/mL | 0.221
[1], first compound 0.8 µg/mL, partner 0.00215 µg/mL | 0.218
[1], first compound 0.8 µg/mL, partner 0.0043 µg/mL | 0.131
[1], first compound 0.86 µg/mL, partner 0.002 µg/mL | 0.246
[1], first compound 0.86 µg/mL, partner 0.004 µg/mL | 0.258
[1], first compound 0.86 µg/mL, partner 0.008 µg/mL | 0.266
[2], first compound 0.1 µg/mL, partner 0.0156 µg/mL | 0.645
[2], first compound 0.1 µg/mL, partner 0.0312 µg/mL | 0.651
[2], first compound 0.1 µg/mL, partner 0.0625 µg/mL | 0.502
[2], first compound 0.2 µg/mL, partner 0.0156 µg/mL | 0.613
[2], first compound 0.2 µg/mL, partner 0.0312 µg/mL | 0.567
[2], first compound 0.2 µg/mL, partner 0.0625 µg/mL | 0.383
[2], first compound 0.4 µg/mL, partner 0.0156 µg/mL | 0.217
[2], first compound 0.4 µg/mL, partner 0.0312 µg/mL | 0.199
[2], first compound 0.4 µg/mL, partner 0.0625 µg/mL | 0.108

COc1c(N2C[C@@H]3CCCN[C@@H]3C2)c(F)cc2c(=O)c(C(=O)O)cn(C3CC3)c12 [Moxifloxacin] + CC1(C)S[C@@H]2[C@H](NC(=O)Cc3ccccc3)C(=O)N2[C@H]1C(=O)O [Penicillin G]
fitness, [3]
Details | first compound 0.0075 µg/mL | first compound 0.015 µg/mL | first compound 0.03 µg/mL
partner 0.0195 µg/mL | 0.722 | 0.625 | 0.081
partner 0.039 µg/mL | 0.706 | – | 0.059
partner 0.078 µg/mL | 0.721 | 0.596 | 0.0633

C/C(=C\C(=O)OCCCCCCCCC(=O)O)C[C@@H]1OC[C@H](C[C@@H]2O[C@H]2[C@@H](C)[C@H](C)O)[C@@H](O)[C@H]1O [Pseudomonic acid] + CC1(C)S[C@@H]2[C@H](NC(=O)Cc3ccccc3)C(=O)N2[C@H]1C(=O)O [Penicillin G]
fitness, [3], one replicate
Details | first compound 0.0313 µg/mL | first compound 0.0625 µg/mL | first compound 0.125 µg/mL
partner 0.0195 µg/mL | 0.0428 | 0.0466 | 0.0353
partner 0.039 µg/mL | 0.0545 | 0.0468 | 0.0403
partner 0.078 µg/mL | 0.069 | 0.0571 | 0.0351

C/C(=C\C(=O)OCCCCCCCCC(=O)O)C[C@@H]1OC[C@H](C[C@@H]2O[C@H]2[C@@H](C)[C@H](C)O)[C@@H](O)[C@H]1O [Pseudomonic acid] + CCN(CC)CCOC(=O)c1ccc(N)cc1 [Procaine]
fitness, [1]
Details | first compound 0.03 µg/mL | first compound 0.06 µg/mL | first compound 0.12 µg/mL
partner 85.5 µg/mL | 0.867 | 0.69 | 0.587
partner 171 µg/mL | 0.92 | 0.762 | 0.581
partner 342 µg/mL | 0.878 | 0.716 | 0.583

fitness, [3], one replicate
Details | first compound 0.0313 µg/mL | first compound 0.0625 µg/mL | first compound 0.125 µg/mL
partner 85.5 µg/mL | 0.0858 | 0.046 | 0.0525
partner 171 µg/mL | 0.0636 | 0.045 | 0.0572
partner 342 µg/mL | 0.0723 | 0.0522 | 0.0551

C/C(=C\C(=O)OCCCCCCCCC(=O)O)C[C@@H]1OC[C@H](C[C@@H]2O[C@H]2[C@@H](C)[C@H](C)O)[C@@H](O)[C@H]1O [Pseudomonic acid] + COc1c(N2C[C@@H]3CCCN[C@@H]3C2)c(F)cc2c(=O)c(C(=O)O)cn(C3CC3)c12 [Moxifloxacin]
fitness, [1]
Details | partner 0.0037 µg/mL | partner 0.005 µg/mL | partner 0.0075 µg/mL | partner 0.01 µg/mL | partner 0.015 µg/mL | partner 0.02 µg/mL
first compound 0.03 µg/mL | 0.635 | 0.929 | 0.839 | 0.975 | 0.806 | 0.982
first compound 0.06 µg/mL | 0.49 | 0.834 | 0.715 | 0.876 | 0.692 | 0.869
first compound 0.12 µg/mL | 0.357 | 0.609 | 0.534 | 0.662 | 0.539 | 0.671

fitness, [3], one replicate
Details | first compound 0.0313 µg/mL | first compound 0.0625 µg/mL | first compound 0.125 µg/mL
partner 0.0075 µg/mL | 0.0642 | 0.025 | 0.0349
partner 0.015 µg/mL | 0.0514 | 0.0242 | 0.0408
partner 0.03 µg/mL | 0.0387 | 0.0144 | 0.0169

C/C(=C\C(=O)OCCCCCCCCC(=O)O)C[C@@H]1OC[C@H](C[C@@H]2O[C@H]2[C@@H](C)[C@H](C)O)[C@@H](O)[C@H]1O [Pseudomonic acid] + C[n+]1ccc(-c2cc[n+](C)cc2)cc1 [Paraquat]
fitness, [1]
Details | partner 1.5 µg/mL | partner 3 µg/mL | partner 6 µg/mL
first compound 0.03 µg/mL | 0.988 | 0.919 | 0.931
first compound 0.06 µg/mL | 0.837 | 0.78 | 0.779

fitness, [3], one replicate
Details | first compound 0.0313 µg/mL | first compound 0.0625 µg/mL | first compound 0.125 µg/mL
partner 1.25 µg/mL | 0.0626 | 0.028 | 0.0553
partner 2.5 µg/mL | 0.0649 | 0.0373 | 0.0338
partner 5 µg/mL | 0.082 | 0.0355 | 0.0668

C/C(=C\C(=O)OCCCCCCCCC(=O)O)C[C@@H]1OC[C@H](C[C@@H]2O[C@H]2[C@@H](C)[C@H](C)O)[C@@H](O)[C@H]1O [Pseudomonic acid] + Cc1onc(-c2ccccc2)c1C(=O)N[C@@H]1C(=O)N2[C@@H]1SC(C)(C)[C@@H]2C(=O)O [Oxacillin]
fitness, [1]
Details | first compound 0.03 µg/mL | first compound 0.06 µg/mL | first compound 0.12 µg/mL
partner 0.01 µg/mL | 0.948 | 0.835 | 0.589
partner 0.02 µg/mL | 0.95 | 0.819 | 0.562
partner 0.04 µg/mL | – | 0.717 | 0.424

fitness, [3], one replicate
Details | first compound 0.0313 µg/mL | first compound 0.0625 µg/mL | first compound 0.125 µg/mL
partner 0.0156 µg/mL | 0.058 | 0.0445 | 0.0455
partner 0.0312 µg/mL | 0.0524 | 0.0435 | 0.0505
partner 0.0625 µg/mL | 0.0522 | 0.0224 | 0.0295

COc1cc(Cc2cnc(N)nc2N)cc(OC)c1OC [Trimethoprim] + Cn1nnc(-c2ccc(-c3ccc(N4C[C@H](CO)OC4=O)cc3F)cn2)n1 [Tedizolid]
[2], first compound 0.125 µg/mL, one replicate
Details | fitness
partner 0.0625 µg/mL | 0.846
partner 0.125 µg/mL | 0.575
partner 0.25 µg/mL | 0.289

fitness, [2]
Details | first compound 0.25 µg/mL | first compound 0.5 µg/mL | first compound 1 µg/mL
partner 0.0625 µg/mL | 0.623 | – | 0.0355
partner 0.125 µg/mL | 0.689 | 0.519 | 0.0418
partner 0.25 µg/mL | 0.502 | 0.39 | 0.192
